{"source": "patent US20250295619A1", "about": "“Use of Salvianolic Acid E in the Preparation of Drugs Targeting Senescent Cells, Inhibiting Tumors or Extending Lifespan” (Shanghai Institute of Nutrition and Health, Chinese Academy …, priority 2024, published 2025)", "key": {"PSC27": {"tested_on": "PSC27", "experiment": "Caspase 3/7 apoptosis detection in senescent PSC27 cells (IncuCyte)", "format": "cell-based, human", "details": "200 μM SAE", "experimental": "PSC27 cells gradually entered the senescent stage after being treated with BLEO for 12 hours under culture conditions. 200 μM SAE was added to the medium of senescent cells starting from day 7, NucLight Rapid Red reagent was used to label the cells and caspase 3/7 reagent (IncuCyte) was used for apoptosis detection. Caspase 3/7 activity was detected every 4 hours (n=3).\nStatistical differences are obtained by two-way ANOVA (Turkey'test).\nPSC27 cells were plated in a 96-well dish, and the cells were induced to senescence under 50 μg/ml of BLEO treatment. SAE and ABT263 were added at concentrations of 200 μM and 1.25 μM, respectively. Cell culture medium was supplemented with Incucyte Nuclight fast Red Reagent (Essen Bioscience) and Incucyte C-3/7 Apoptosis Reagent (Essen Bioscience). Representative field of view was selected to take pictures."}, "[1]": {"tested_on": "PC3/PSC27 transplanted tumors", "experiment": "PC3/PSC27 xenograft tumor volume in NOD/SCID mice", "format": "in vivo, mouse", "details": "single agent", "experimental": "Every two weeks was a dosing cycle, and MIT (mitoxantrone) was intraperitoneally administered to the mice on the first day of the 3rd/5th/7th weeks. From the first day of the 5th week, the mice were intraperitoneally administered with SAE, […]. After the 8-week course of treatment, the mice were dissected for pathological identification and expression analysis.\nAll experimental mouse experiments were carried out in strict accordance with the relevant regulations of the Institutional Animal Care and Use Committee (IACUC), Shanghai Institutes for Biological Sciences, Chinese Academy of Sciences. Immuno-deficient mice (NOD-SCID mice, ICR) (body weight about 25 g) aged 6-8 weeks were used for animal experiments related to the present patent. Stromal cells PSC27 and epithelial cells PC3 were mixed at a predetermined ratio of 1:4, and each graft contained 1.25×10^6 cells for tissue remodeling. The xenograft tumors were implanted into mice by subcutaneous transplantation, and the animals were euthanized 8 weeks after the end of the transplantation surgery. Tumor volume was calculated according to the following formula: V=(π/6)×((1+w)/2)3 (V, volume; l, length; w, width).\n(§1) In a preclinical treatment trial, subcutaneously transplanted mice were fed with a standard experimental diet, after 2 weeks chemotherapy drugs mitoxantrone (MIT, dose: 0.2 mg/kg) and/or SAE (500 μl, dose: 10 mg/kg) via intraperitoneal administration. The time points were: the former was administrated on the first day of the 3rd, 5th and 7th weeks, and the latter was administrated on the first day of the 5th and 7th weeks. A total of 3 cycles of MIT administration were carried out throughout the course of treatment, and each cycle lasted for 2 weeks. After the course of treatment, mouse tumors were harvested for volume measurement and histological analysis. Each mouse cumulatively received 0.6 mg/kg body weight of MIT and 30 mg/kg body weight of SAE. In order to cause systemic expression of SASP factors induced by chemotherapy, MIT was administered to mice through intravenous infusion according to the above steps and sequence, but the dose was reduced to 0.1 mg/kg body weight/each time (the cumulative dose of MIT received in the whole course of treatment was 0.3 mg/kg body weight) to reduce drug-related toxicity. The chemotherapy experiment ended at the end of the 8th week, and the mice were dissected immediately after sacrifice, and the xenograft tumors were collected and used for pathological system analysis."}, "SASP factors": {"tested_on": "SASP factors", "experiment": "LCM and qRT-PCR of SASP factors in mouse lesions", "format": "in vivo", "details": "MIT/SAE vs MIT", "experimental": "The stromal cells and cancer cells were specifically separated by LCM technology, total RNA was prepared and used for SASP expression detection. ^, P>0.05; *, P<0.05; **, P<0.01.\nas §1, with “The chemotherapy experiment ended at the end of the 8th week, and the mice were dissected immediately after sacrifice, and the xenograft tumors were collected and used for pathological system analysis.” left out"}, "PC3/PSC27 tumors": {"tested_on": "PC3/PSC27 tumors", "experiment": "DNA damage and apoptosis in tumors of treated mice", "format": "in vivo, mouse", "from_the_text": "To investigate mechanisms directly supporting this senescence-associated pattern with expression and reversal of SASP in MIT-administered mice, the inventors dissected tumors in animals treated with both drugs 7 days after the first SAE administration, and the time point of 7 days after administration was selected mainly because drug-resistant clones had not yet formed in cancer cells in the lesion at this time. […] As supporting evidence, when SAE was applied during treatment, caspase 3 cleavage activity was increased, which was a typical hallmark of apoptosis (FIG. 29)."}, "aged C57BL/6 mice": {"tested_on": "aged C57BL/6 mice", "experiment": "Lifespan study in aged C57BL/6 mice", "format": "in vivo, mouse", "details": "administered from 24-27 months of age, every two weeks", "experimental": "Starting at 24 to 27 months of age, C57BL/6 mice received intraperitoneal administration of vehicle or SAE every two weeks (n=80 for vehicle group; n=91 for SAE group). The median survival of animals in each group was calculated and indicated. ****, P<0.0001.\nStarting at 24 to 27 months of age, C57BL/6 mice received intraperitoneal administration of vehicle or SAE every two weeks (n=80 for vehicle group; n=91 for SAE group). The median lifetime survival of animals in each group was calculated and indicated. ****, P<0.0001.\nFor the cell transplantation study, the inventors obtained […] male C57BL/6 mice by serial rearing in the SPF animal platform, with 4 to 5 animals per cage. The inventors first sorted the mice by body weight from low to high, and then selected mice with similar body weights. Next, the mice were assigned to senescence (SEN) or control (CTRL) transplant treatment at each interval using a random number generator, while the middle mice were assigned to the other treatment, so that the body weights of the senescence and control transplant mice were matched. One month after cell transplantation, when the mice were 18 months old, physical function tests were performed. After that, no further testing was done on the mice other than checking their cages. The earliest deaths occurred approximately 2 months after the last physical function test. […]"}}}
{"smiles": "O=C(/C=C/c1ccc(O)c(O)c1/C(=C\\c1ccc(O)c(O)c1)C(=O)O[C@H](Cc1ccc(O)c(O)c1)C(=O)O)O[C@H](Cc1ccc(O)c(O)c1)C(=O)O", "note": "[SAE, salvianolic acid E]", "values": [{"measurement": "caspase-3/7 activity: apoptosis of senescent cells", "setting": "PSC27", "result": "caused apoptosis of senescent cells"}, {"measurement": "time after addition of SAE from which senescent and control group differ statistically", "setting": "PSC27; caspase 3/7 activity", "result": "≥ 16", "unit": "h"}, {"measurement": "tumor shrinkage by the agent itself", "setting": "[1]", "result": "did not cause tumor shrinkage"}, {"measurement": "change of SASP factor expression when SAE was administered", "setting": "SASP factors", "result": "largely reversed"}, {"measurement": "indices of DNA damage or apoptosis", "setting": "PC3/PSC27 tumors; MIT-treated animals administered with SAE", "result": "significantly enhanced"}, {"measurement": "caspase 3 cleavage activity", "setting": "PC3/PSC27 tumors; SAE applied during treatment", "result": "significantly increased"}, {"measurement": "degree of DNA damage and apoptosis", "setting": "PC3/PSC27 tumors; single agent compared with placebo, 7 days after first SAE administration", "result": "could not induce DNA damage or cause apoptosis"}, {"measurement": "risk of death HR (SAE group/vehicle group)", "setting": "aged C57BL/6 mice", "result": 0.3249}]}
